# According to ChEMBL document CHEMBL1201862, “PubChem BioAssay data set” (2004):
# Active and inactive are the calls of the source. Cut-off read from the data, not from the text of the source, for most assays here: actives have a measured EC50 and inactives only a lower limit.
# Key:
# [1] = target: Luciferin 4-monooxygenase (Photinus pyralis, UniProt P08659); test: inhibition of purified Photinus pyralis luciferase – biochemical, luminescence, dose response (AID 1891)
# [2] = Luminescence Cell-Based Dose Confirmation HTS to Identify Inhibitors of Platelet Dense Granule Release. [Related pubchem assays: 1663 (Primary HTS), 1678 (Summary of Project)]; assay type: functional
# Fatty acid synthase [3] = target: T1, Fatty acid synthase (Homo sapiens, UniProt P49327); test: inhibition of human FAS-TE enzyme activity – biochemical, endpoint fluorescence intensity, uHTS hits, dose response (AID 624327); assay type: functional;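 note: fluorescence from hydrolysis of an O-methyl fluorescein acyl ester substrate by the enzyme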
# T1 sequence (P49327 whole entry): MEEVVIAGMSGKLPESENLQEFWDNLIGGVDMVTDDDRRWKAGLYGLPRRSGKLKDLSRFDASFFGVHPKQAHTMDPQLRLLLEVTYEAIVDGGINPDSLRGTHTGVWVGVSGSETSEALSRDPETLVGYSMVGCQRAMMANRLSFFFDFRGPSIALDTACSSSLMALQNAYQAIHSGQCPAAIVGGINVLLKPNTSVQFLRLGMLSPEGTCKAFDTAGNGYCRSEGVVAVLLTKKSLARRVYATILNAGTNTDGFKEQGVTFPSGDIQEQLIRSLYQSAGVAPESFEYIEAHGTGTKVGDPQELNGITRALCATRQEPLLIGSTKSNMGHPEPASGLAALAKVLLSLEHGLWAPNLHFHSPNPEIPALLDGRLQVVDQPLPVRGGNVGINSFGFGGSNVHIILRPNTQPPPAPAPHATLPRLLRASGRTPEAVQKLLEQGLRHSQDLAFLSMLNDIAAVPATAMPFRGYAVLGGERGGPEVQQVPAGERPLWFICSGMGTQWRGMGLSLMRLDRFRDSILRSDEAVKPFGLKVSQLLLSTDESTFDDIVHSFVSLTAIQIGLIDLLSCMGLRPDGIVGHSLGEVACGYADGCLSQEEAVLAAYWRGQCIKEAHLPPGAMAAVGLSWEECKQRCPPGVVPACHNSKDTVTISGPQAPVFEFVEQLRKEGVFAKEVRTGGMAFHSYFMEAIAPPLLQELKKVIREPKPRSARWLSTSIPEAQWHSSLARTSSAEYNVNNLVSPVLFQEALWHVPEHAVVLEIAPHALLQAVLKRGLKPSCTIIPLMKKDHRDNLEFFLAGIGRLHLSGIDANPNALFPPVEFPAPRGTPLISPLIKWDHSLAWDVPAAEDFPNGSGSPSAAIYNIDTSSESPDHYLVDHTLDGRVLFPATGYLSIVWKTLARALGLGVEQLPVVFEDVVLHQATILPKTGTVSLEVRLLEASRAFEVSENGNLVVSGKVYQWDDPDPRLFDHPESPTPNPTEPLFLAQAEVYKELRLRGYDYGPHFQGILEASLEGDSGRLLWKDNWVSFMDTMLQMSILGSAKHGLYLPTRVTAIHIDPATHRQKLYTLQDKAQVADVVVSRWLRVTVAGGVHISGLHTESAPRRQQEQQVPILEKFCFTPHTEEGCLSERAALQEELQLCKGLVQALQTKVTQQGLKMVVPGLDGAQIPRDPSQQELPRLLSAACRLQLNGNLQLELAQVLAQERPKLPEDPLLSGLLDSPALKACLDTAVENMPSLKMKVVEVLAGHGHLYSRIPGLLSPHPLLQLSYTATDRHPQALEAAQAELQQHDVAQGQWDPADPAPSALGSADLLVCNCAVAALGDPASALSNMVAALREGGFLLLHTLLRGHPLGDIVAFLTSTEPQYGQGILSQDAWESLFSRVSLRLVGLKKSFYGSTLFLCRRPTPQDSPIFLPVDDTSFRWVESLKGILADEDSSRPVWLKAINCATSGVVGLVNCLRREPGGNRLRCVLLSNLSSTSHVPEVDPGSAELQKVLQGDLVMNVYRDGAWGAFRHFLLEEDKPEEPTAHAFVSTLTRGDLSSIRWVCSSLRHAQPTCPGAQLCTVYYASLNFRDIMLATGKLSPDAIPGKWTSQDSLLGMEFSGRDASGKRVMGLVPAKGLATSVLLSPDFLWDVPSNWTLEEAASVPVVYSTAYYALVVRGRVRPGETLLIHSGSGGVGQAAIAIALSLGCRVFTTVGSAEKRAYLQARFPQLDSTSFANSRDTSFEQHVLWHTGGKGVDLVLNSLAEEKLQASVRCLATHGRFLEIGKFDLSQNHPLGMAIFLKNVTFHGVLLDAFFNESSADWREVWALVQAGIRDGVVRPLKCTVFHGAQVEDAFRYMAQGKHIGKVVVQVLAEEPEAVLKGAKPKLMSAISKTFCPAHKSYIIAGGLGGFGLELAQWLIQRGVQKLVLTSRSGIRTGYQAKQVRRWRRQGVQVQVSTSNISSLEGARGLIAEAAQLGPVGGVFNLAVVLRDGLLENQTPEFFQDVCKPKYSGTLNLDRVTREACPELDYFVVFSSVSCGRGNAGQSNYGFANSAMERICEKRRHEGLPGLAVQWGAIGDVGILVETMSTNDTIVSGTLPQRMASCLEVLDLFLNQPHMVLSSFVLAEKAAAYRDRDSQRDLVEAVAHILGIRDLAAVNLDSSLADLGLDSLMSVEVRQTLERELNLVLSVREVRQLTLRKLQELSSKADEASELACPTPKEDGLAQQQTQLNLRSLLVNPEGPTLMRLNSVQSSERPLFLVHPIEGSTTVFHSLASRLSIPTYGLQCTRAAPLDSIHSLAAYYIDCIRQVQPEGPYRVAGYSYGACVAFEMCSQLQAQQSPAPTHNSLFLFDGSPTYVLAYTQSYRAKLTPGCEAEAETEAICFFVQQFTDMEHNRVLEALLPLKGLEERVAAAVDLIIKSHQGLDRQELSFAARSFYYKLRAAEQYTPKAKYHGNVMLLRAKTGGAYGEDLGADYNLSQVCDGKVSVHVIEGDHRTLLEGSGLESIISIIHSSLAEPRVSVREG
# Fatty acid synthase [4] = target: T1, Fatty acid synthase; test: inhibition of human FAS-TE enzyme activity – biochemical, kinetic fluorescence intensity, dose response (AID 624326); assay type: functional;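 note: rate of fluorescence rise from hydrolysis of a fluorogenic O-methyl fluorescein ester substrate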
# [5] = test system: Streptococcus sp. 'group A'; test: Streptococcus pyogenes SK(-)GAS viability under kanamycin – luminescence, BacTiterGlo, confirmation, counter-screen for streptokinase expression inhibitor project, dose response (AID 1900); assay type: functional, organism-based
# [6] = target: T2, Heat shock factor protein 1 (Mus musculus, UniProt P38532); test: decrease of HSF1-responsive luciferase luminescence – cell-based, NIH3T3, dose retest, confirmation (AID 2382); assay type: functional;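 note: NIH3T3 fibroblasts with HSF1-driven luciferase reporter stressed by proteasome inhibitor MG132; luminescence from HSF1-driven luciferase expression after 8 hours of MG132 stress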
# T2 sequence (P38532 whole entry): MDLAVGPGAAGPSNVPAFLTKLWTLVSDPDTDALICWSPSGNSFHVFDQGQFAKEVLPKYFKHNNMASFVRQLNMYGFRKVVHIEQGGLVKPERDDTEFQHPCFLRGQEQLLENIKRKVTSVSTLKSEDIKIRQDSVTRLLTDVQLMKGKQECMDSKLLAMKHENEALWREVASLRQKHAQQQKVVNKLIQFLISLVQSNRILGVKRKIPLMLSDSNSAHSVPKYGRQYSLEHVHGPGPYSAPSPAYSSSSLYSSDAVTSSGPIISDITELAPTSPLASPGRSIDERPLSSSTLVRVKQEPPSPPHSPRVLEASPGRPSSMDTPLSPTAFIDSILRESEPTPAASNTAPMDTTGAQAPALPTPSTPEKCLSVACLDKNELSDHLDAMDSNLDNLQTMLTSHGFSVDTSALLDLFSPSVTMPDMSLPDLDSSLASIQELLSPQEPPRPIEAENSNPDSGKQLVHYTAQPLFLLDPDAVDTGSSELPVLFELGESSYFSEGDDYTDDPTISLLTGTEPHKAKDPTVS
# Streptokinase A = target: T3, Streptokinase A (Streptococcus pyogenes serotype M1, UniProt P10520); test: viability-normalized secreted streptokinase activity reduction – plasminogen activation absorbance, OD405, dose response (AID 1914); assay type: functional, Streptococcus pyogenes M1 GAS;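 note: secreted streptokinase activity via plasminogen activation per viability signal from cell pellet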
# T3 sequence (P10520 whole entry): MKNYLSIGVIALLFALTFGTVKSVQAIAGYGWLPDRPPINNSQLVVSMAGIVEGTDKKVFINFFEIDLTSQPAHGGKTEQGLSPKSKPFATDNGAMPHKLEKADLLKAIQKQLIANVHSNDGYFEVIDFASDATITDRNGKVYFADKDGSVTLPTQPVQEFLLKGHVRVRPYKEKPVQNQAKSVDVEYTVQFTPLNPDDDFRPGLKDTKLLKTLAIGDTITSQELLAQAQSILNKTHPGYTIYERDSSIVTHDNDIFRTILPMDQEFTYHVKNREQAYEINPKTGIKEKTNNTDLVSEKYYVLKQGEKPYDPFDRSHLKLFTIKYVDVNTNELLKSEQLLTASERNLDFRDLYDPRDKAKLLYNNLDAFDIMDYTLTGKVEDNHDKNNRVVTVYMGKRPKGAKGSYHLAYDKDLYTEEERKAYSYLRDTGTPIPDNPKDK
# Streptococcus = test: GAS UMAA2166 growth inhibition – luminescence, BacTiterGlo, counter-screen for streptokinase expression inhibitor project, dose response (AID 1915); assay type: functional, organism-based;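 note: potency for reduction of bacterial viability or growth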
# [7] = luciferase reporter signal suppression in cells – H4 neuroglioma cells, luminescence, dose response (AID 1990); assay type: functional, cell-based
# [8] = Luminescence Cell-Based Dose Response HTS to Identify Inhibitors of 5'UTR Stem-Loop Driven Prion Protein mRNA Translation in H4 Neuroglioblastoma Cells. [Related pubchem assays: 1827 (Project Summary), 1813 (Primary HTS)]; assay type: functional
# [9] = alpha-synuclein stem-loop luciferase translation blockers – H4 neuroglioma cells, luminescence, confirmation (AID 1988); assay type: functional, cell-based
# [10] = viability of PTEN-deleted HCT116 cells – cell-based, HCT116 PTEN knockout, dose response (AID 1047); assay type: functional;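 note: HCT116 colon tumor cells with PTEN knocked out; cells exposed to compound for 60 hours before readout; potency for loss of cell viability measured by luminescence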
# [11] = viability of HCT116 lacking mutant beta-catenin – cell-based, human colon tumor, dose response (AID 1045); assay type: functional;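 note: HCT116 colon tumor cells with beta catenin knocked out; cells exposed to compound for 60 hours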
# Sequence of Luciferin 4-monooxygenase (P08659 whole entry): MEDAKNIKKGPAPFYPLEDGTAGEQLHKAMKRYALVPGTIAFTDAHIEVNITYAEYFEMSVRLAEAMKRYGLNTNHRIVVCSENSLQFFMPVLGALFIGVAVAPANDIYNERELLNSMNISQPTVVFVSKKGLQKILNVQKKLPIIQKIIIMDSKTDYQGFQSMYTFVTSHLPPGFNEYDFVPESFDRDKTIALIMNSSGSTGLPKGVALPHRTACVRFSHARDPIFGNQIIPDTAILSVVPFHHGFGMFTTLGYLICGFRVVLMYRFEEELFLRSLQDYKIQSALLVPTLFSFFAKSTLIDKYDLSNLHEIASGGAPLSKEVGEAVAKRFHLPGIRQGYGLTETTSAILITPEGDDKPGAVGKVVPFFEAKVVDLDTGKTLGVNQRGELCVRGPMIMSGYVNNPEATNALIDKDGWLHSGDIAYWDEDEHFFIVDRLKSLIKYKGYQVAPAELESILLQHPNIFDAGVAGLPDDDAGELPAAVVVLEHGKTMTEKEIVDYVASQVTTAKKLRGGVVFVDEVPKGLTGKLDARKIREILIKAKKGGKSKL
compound,measurement,setting,value
Cc1cc(=O)oc(C)c1C(=O)NCCNC(=O)c1c(C)cc(=O)oc1C,EC50,[1],> 112 µM (not active)
same,EC50,[2],28.8 µM (active)
Cc1ccc(C)c(S(=O)(=O)N2CCN(C(=O)Cc3ccc(S(=O)(=O)N4CCOCC4)s3)CC2)c1,IC50,Fatty acid synthase [3],6.49 µM (active)
same,IC50,Fatty acid synthase [4],7.72 µM (active)
CCOc1ccc(NC(=O)c2ccc3c(=O)n(-c4ccc(OC)cc4OC)c(=S)[nH]c3c2)cc1,EC50,[5],7.86 µM (active)
same,EC50,[6],> 195 µM (not active)
same,EC50,Streptokinase A,> 150 µM (not active)
same,EC50,Streptococcus,12.4 µM (active)
CC(C)(C)N(Cc1ccccc1)C(=O)COC(=O)c1cccc([N+](=O)[O-])c1,IC50,Fatty acid synthase [3],4.39 µM (active)
same,IC50,Fatty acid synthase [4],2.97 µM (active)
CC(=O)c1cccc(-c2ccnc3c2CC(C(=O)Nc2ccc(C(C)C)cc2)O3)c1 (centres undefined),IC50,Fatty acid synthase [3],10.8 µM (active)
same,IC50,Fatty acid synthase [4],6.77 µM (active)
Cc1cc(=O)oc2cc(OCCSCCN3CCCC3)ccc12,EC50,[1],> 112 µM (not active)
same,EC50,[2],> 112 µM (not active)
CCn1cc(C(=O)NCc2ccc(Cl)cc2)c(=O)c2cc(S(=O)(=O)N(C)C)ccc21,IC50,Fatty acid synthase [3],9.03 µM (active)
same,IC50,Fatty acid synthase [4],8.74 µM (active)
Cc1ccc(Cl)cc1N1CCN(C(=O)c2cn(C)c(=O)c3c2c2ccccc2n3C)CC1,EC50,[7],12.4 µM (active)
same,EC50,[5],3.51 µM (active)
same,EC50,[8],20.5 µM (active)
same,EC50,[9],11.4 µM (active)
same,EC50,Streptokinase A,9.73 µM (active)
same,EC50,[10],3.36 µM (active)
same,EC50,[11],4.17 µM (active)
same,EC50,Streptococcus,22.8 µM (active)
COc1ccc(-c2nn(-c3ccccc3)cc2/C=C/C(=O)O)cc1[N+](=O)[O-],IC50,Fatty acid synthase [3],12.1 µM (active)
same,IC50,Fatty acid synthase [4],13.6 µM (active)
CCCNS(=O)(=O)c1ccc(OCC(=O)N2CCN(C)CC2)cc1,EC50,[6],> 195 µM (not active)
Nc1c(NC(=O)CC[n+]2ccccc2)cccc1[N+](=O)[O-],EC50,[6],7.93 µM (active)
CCN1C(=O)C(CC(=O)Nc2ccc(OC)cc2)N(Cc2ccc3c(c2)OCO3)C1=S (centres undefined),EC50,[6],> 195 µM (not active)
